Experimental data as given in ChEMBL document CHEMBL5726941, “Naphthyridine compounds, medical combinations and use thereof” (2018).

Target: Hepatocyte growth factor receptor (Homo sapiens, UniProt P08581)
Assay: Inhibition Assay: A study on inhibition of protein kinases activity at in vitro biochemical levelMaterial and method: kinases such as c-Met, VEGFR-2, Axl and RET, obtained from Invitrogen; HTRF KinEASE; TK kit (Cisbio Company); 384-well plate (Greiner Company); ATP (Sigma Company), MgCl2 (Sigma Company); PHERAstar FS multifunctional plate reader (BMG Company); conventional centrifuge (StaiteXiangyi Company); incubator (Binder Company). […] Meanwhile, 4 μL 1.33× enzymatic buffer is added as the negative control. 2 μL compound working solution is added into each well, and 2 μL 8% DMSO in water is added as zero compound level control (i.e., positive control). At 25° C. (or 30 C), incubate for 5-10 min; add 2 μL substrate working solution into each well to initiate the enzymatic reaction. Allow to react while shaking at 25° C. (or 30° C.) for 15-60 min.

Sequence of Hepatocyte growth factor receptor (P08581 whole entry): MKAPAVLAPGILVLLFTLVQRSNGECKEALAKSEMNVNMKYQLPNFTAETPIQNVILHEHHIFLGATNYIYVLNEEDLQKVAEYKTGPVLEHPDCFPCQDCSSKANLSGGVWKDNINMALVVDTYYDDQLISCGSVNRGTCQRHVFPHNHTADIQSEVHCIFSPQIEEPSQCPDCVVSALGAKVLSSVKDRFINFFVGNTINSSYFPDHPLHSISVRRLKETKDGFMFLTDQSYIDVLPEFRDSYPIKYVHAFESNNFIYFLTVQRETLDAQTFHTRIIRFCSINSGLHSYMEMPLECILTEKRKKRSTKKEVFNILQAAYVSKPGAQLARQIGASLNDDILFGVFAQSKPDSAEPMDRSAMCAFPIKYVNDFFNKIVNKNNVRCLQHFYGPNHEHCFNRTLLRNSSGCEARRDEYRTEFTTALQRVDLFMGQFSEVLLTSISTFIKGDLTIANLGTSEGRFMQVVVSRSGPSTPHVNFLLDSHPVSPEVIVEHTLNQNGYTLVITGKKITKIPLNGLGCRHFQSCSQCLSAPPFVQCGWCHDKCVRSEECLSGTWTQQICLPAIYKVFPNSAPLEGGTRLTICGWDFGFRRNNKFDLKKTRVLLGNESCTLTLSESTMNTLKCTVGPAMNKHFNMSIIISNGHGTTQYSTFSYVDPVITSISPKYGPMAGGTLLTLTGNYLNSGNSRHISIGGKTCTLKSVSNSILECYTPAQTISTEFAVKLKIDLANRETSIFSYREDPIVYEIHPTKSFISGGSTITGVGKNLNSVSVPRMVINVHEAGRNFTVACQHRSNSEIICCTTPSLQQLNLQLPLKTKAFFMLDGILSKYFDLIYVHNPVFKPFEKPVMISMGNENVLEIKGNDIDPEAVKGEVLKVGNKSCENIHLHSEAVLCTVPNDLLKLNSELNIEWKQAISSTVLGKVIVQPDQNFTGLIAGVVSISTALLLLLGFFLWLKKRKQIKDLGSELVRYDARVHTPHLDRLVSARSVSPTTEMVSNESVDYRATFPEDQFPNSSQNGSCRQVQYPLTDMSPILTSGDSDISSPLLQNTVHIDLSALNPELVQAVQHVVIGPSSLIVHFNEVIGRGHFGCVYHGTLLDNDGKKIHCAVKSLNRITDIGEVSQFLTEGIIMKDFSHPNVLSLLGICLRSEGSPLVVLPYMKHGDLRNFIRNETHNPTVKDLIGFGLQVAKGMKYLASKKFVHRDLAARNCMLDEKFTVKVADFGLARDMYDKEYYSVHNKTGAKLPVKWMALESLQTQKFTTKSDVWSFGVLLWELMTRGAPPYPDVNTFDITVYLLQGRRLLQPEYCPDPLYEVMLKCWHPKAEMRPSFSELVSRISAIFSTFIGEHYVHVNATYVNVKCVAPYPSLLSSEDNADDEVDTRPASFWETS

Compound: COc1cc2nccc(Oc3ccc(Nc4nccc5[nH]cc(-c6ccc(F)cc6)c(=O)c45)cc3F)c2cc1OC
- IC50: 143 nM
